Converted amounts (≈) assume the structure as drawn. Structures can show the parent of a compound that is named as a salt.
Assay: Solubility
Assay type: physicochemical
Settings: for solubility: aqueous buffer, 50 mM phosphate buffer, pH 7.4; for solubility, suitability for IV dosage forms: statement in words

Row | solubility [µM] | SMILES | solubility, suitability for IV dosage forms
1 | 129 | CCn1c(-c2nonc2N)nc2c(C#CC(C)(C)O)ncc(OCC3CNCC(C)O3)c21 (stereo in doubt) [Example 9, 4-[2-(4-amino-1,2,5-oxadiazol-3-yl)-1-ethyl-7-({[(2R)-6-methyl-2-morpholinyl]methyl}oxy)-1H-imidazo[4,5-c]pyridin-4-yl]-2-methyl-3-butyn-2-ol, dihydrochloride] | suitable for formulation into dosage forms for IV administration
2 | 23 (≈ 10.5 µg/mL) | CCn1c(-c2nonc2N)nc2c(C#CC(C)(C)O)ncc(OC[C@@H]3CN(C)CCS3)c21 (single isomer, unassigned; enantiomer e1) [Example 7, 4-(2-(4-amino-1,2,5-oxadiazol-3-yl)-1-ethyl-7-{[(4-methyl-2-thiomorpholinyl)methyl]oxy}-1H-imidazo[4,5-c]pyridin-4-yl)-2-methyl-3-butyn-2-ol (enantiomer E1)] | 
3 | 210 (≈ 89.4 µg/mL) | CCn1c(-c2nonc2N)nc2c(C#CC(C)(C)O)ncc(OC[C@H]3CCCNC3)c21 [Example 1, 4-(2-(4-amino-1,2,5-oxadiazol-3-yl)-1-ethyl-7-{[(3S)-3-Piperidinylmethyl]oxy}-1H-imidazo[4,5-c]pyridin-4-yl)-2-methyl-3-butyn-2-ol] | suitable for formulation into dosage forms for IV administration
4 | 6 (≈ 2.73 µg/mL) | CCN1CCO[C@H](COc2cnc(C#CC(C)(C)O)c3nc(-c4nonc4N)n(CC)c23)C1 [Example 10, 4-[2-(4-amino-1,2,5-oxadiazol-3-yl)-1-ethyl-7-({[(2S)-4-ethyl-2-morpholinyl]methyl}oxy)-1H-imidazo[4,5-c]pyridin-4-yl]-2-methyl-3-butyn-2-ol] | 
5 | 110 | CCn1c(-c2nonc2N)nc2c(C#CC(C)(C)O)ncc(OC[C@@H]3CNCCS3)c21 (single isomer, unassigned; enantiomer e1) [Example 3, 4-{2-(4-amino-1,2,5-oxadiazol-3-yl)-1-ethyl-7-[(2-thiomorpholinylmethyl)oxy]-1H-imidazo[4,5-c]pyridin-4-yl}-2-methyl-3-butyn-2-ol dihydrochloride (enantiomer E1)] | suitable for formulation into dosage forms for IV administration
6 | 83 | CCn1c(-c2nonc2N)nc2c(C#CC(C)(C)O)ncc(OCC3CCNC3)c21 (centres unmarked) [Example 5, 4-{2-(4-amino-1,2,5-oxadiazol-3-yl)-1-ethyl-7-[(3-Pyrrolidinylmethyl)oxy]-1H-imidazo[4,5-c]pyridin-4-yl}-2-methyl-3-butyn-2-ol, bis-trifluoroacetic acid salt] | 
7 | 188 | CCn1c(-c2nonc2N)nc2c(C#CC(C)(C)O)ncc(OC[C@H]3CNCCO3)c21 [Example 2, 4-(2-(4-amino-1,2,5-oxadiazol-3-yl)-1-ethyl-7-{[(2R)-2-morpholinylmethyl]oxy}-1H-imidazo[4,5-c]pyridin-4-yl)-2-methyl-3-butyn-2-ol dihydrochloric acid salt] | 
8 | 44 | CCn1c(-c2nonc2N)nc2c(C#CC(C)(C)O)ncc(OC[C@H]3CCCN(C)C3)c21 [Example 6, 4-[2-(4-amino-1,2,5-oxadiazol-3-yl)-1-ethyl-7-({[(3S)-1-methyl-3-piperidinyl]methyl}oxy)-1H-imidazo[4,5-c]pyridin-4-yl]-2-methyl-3-butyn-2-ol, dihydrochloride] | 
9 | 154 (≈ 65.8 µg/mL) | CCn1c(-c2nonc2N)nc2c(C#CC(C)(C)O)ncc(OC[C@@H]3CNCCO3)c21 [Example 4, 4-(2-(4-amino-1,2,5-oxadiazol-3-yl)-1-ethyl-7-{[(2S)-2-morpholinylmethyl]oxy}-1H-imidazo[4,5-c]pyridin-4-yl)-2-methyl-3-butyn-2-ol] | suitable for formulation into dosage forms for IV administration
10 | 34 (≈ 15 µg/mL) | CCn1c(-c2nonc2N)nc2c(C#CC(C)(C)O)ncc(OC[C@@H]3CN(C)CCO3)c21 [Example 8, 4-[2-(4-amino-1,2,5-oxadiazol-3-yl)-1-ethyl-7-({[(2S)-4-methyl-2-morpholinyl]methyl}oxy)-1H-imidazo[4,5-c]pyridin-4-yl]-2-methyl-3-butyn-2-ol] | 

Reference: patent publication US7625890B2, “Substituted imidazo[4,5-c]pyridine compounds as Akt inhibitors” (SmithKline Beecham Corp., priority 2005, dated 2009)
